In patent US20240116985A1, “STAPLED PEPTIDES AND METHODS THEREOF” (priority 2020, published 2024):
Read-outs that look alike come from different tables or passages of the source.

Assays:
[1] = CHI Log D procedure; format: physicochemical
[2] = target: T1, full-length beta-Catenin (Uniprot ID P35222) (Homo sapiens, UniProt P35222); experiment: Fluorescence polarization IC50 (beta-catenin / 5FAM-TCF4 10-53 competition); format: binding
T1 construct: 10 nM full-length beta-Catenin (Uniprot ID P35222)
T1 sequence (P35222 1-781): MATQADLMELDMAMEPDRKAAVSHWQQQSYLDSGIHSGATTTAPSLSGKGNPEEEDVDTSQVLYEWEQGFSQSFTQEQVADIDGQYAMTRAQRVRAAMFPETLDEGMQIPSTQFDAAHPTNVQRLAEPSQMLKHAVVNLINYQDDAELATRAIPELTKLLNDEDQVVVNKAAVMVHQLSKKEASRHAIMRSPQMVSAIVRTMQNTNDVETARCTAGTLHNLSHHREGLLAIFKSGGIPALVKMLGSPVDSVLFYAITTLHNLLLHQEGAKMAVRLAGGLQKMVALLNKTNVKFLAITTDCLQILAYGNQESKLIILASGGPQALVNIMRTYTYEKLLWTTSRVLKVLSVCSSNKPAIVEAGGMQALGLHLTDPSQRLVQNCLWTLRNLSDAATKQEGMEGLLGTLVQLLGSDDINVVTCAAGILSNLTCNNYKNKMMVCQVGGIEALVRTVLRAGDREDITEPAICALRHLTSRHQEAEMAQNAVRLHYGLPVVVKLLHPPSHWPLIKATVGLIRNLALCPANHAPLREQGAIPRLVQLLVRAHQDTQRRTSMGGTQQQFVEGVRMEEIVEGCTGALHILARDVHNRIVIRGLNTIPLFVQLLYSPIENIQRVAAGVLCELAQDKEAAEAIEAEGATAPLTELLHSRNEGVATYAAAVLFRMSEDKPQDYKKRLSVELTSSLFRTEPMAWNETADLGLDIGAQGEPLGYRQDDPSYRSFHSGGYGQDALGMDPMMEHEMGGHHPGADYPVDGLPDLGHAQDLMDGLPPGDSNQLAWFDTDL

[3] = fluorescence polarization, read-out: beta-Catenin FP IC50

Row | chromatographic logD ([1]; pH 7.4, CHI Log D) | IC50 [2, 3] [nM] | logD ([1]; pH 7.4) | IC50 ([2]; read-out: bCat FP IC50) [nM] | Structure (SMILES) | CHI Log D ([1]; pH 7.4) | IC50 ([2]; read-out: FP EC50) [nM] | chromatographic logD ([1]; pH 7.4) | IC50 ([2]; FP EC50 (nM)) [nM]
1 |  |  |  |  | CC[C@H](C)[C@@H]1NC(=O)[C@H](CC(=O)O)NC(=O)[C@]2(CC=CCCCC3(CCCC=CCCCCCC[C@@](C)(C(=O)N[C@@H](Cc4ccccc4)C(=O)N[C@@H](Cc4csc5ccccc45)C(=O)N[C@@H](CCC(N)=O)C(N)=O)NC(=O)[C@H](CCC(N)=O)NC(=O)[C@H](Cc4ccccc4)NC(=O)[C@H](C)NC(=O)[C@H](CCCCNC(=O)CN=[N+]=[N-])NC(=O)[C@H](CCC(=O)O)NC(=O)[C@H](CC(=O)O)NC3=O)NC1=O)CCCN2C(C)=O (stereo partly drawn) [I-591, Ac-PL3-Asp-Ile-B5-Asp-Glu-[AzAc]Lys-Ala-Phe-Gln-S8-Phe-BztA-Gln-NH2] | 2.348 | 64 |  | 
2 |  |  |  |  | CC[C@H](C)[C@@H]1NC(=O)[C@H](CC(=O)O)NC(=O)[C@]2(CC=CCCCC3(CCCC=CCCCCCC[C@@](C)(C(=O)N[C@@H](Cc4ccccc4)C(=O)N[C@@H](Cc4csc5ccccc45)C(=O)N[C@@H](CCC(N)=O)C(N)=O)NC(=O)[C@H](CCC(N)=O)NC(=O)[C@H](Cc4ccccc4)NC(=O)[C@H](C)NC(=O)[C@H](CCCCNC(=O)CN=[N+]=[N-])NC(=O)[C@H](CCC(=O)O)NC(=O)[C@H](CC(=O)O)NC3=O)NC1=O)CCCN2C(C)=O (stereo partly drawn) [I-592, Ac-PL3-Asp-Ile-B5-Asp-Glu-[AzAc]Lys-Ala-Phe-Gln-S8-Phe-BztA-Gln-NH2] | 2.414 | 24 |  | 
3 |  |  |  |  | CC[C@H](C)[C@@H]1NC(=O)[C@H](CC(=O)O)NC(=O)[C@]2(CC=CCCCC3(CCCC=CCCCCCC[C@@](C)(C(=O)N[C@@H](Cc4ccccc4)C(=O)N[C@@H](Cc4csc5ccccc45)C(=O)N[C@@H](CCC(N)=O)C(N)=O)NC(=O)[C@H](CCC(N)=O)NC(=O)[C@H](Cc4ccccc4)NC(=O)[C@H](CCCCNC(=O)CN=[N+]=[N-])NC(=O)[C@H](C)NC(=O)[C@H](CCC(=O)O)NC(=O)[C@H](CC(=O)O)NC3=O)NC1=O)CCCN2C(C)=O (stereo partly drawn) [I-593, Ac-PL3-Asp-Ile-B5-Asp-Glu-Ala-[AzAc]Lys-Phe-Gln-S8-Phe-BztA-Gln-NH2] |  |  | 2.12 | 68
4 |  |  |  |  | CC[C@H](C)[C@@H]1NC(=O)[C@H](CC(=O)O)NC(=O)[C@]2(CC=CCCCC3(CCCC=CCCCCCC[C@@](C)(C(=O)N[C@@H](Cc4ccccc4)C(=O)N[C@@H](Cc4csc5ccccc45)C(=O)N[C@@H](CCC(N)=O)C(N)=O)NC(=O)[C@H](CCCCNC(=O)CN=[N+]=[N-])NC(=O)[C@H](Cc4ccccc4)NC(=O)[C@H](C)NC(=O)[C@H](C)NC(=O)[C@H](CCC(=O)O)NC(=O)[C@H](CC(=O)O)NC3=O)NC1=O)CCCN2C(C)=O (stereo partly drawn) [I-594, Ac-PL3-Asp-Ile-B5-Asp-Glu-Ala-Ala-Phe-[AzAc]Lys-S8-Phe-BztA-Gln-NH2] |  |  | 2.61 | 87
5 |  |  |  |  | CC[C@H](C)[C@@H]1NC(=O)[C@H](CC(=O)O)NC(=O)[C@]2(CC=CCCCC3(CCCC=CCCCCCC[C@@](C)(C(=O)N[C@@H](Cc4ccccc4)C(=O)N[C@@H](Cc4csc5ccccc45)C(=O)N[C@@H](CCCCNC(=O)CN=[N+]=[N-])C(N)=O)NC(=O)[C@H](CCC(N)=O)NC(=O)[C@H](Cc4ccccc4)NC(=O)[C@H](C)NC(=O)[C@H](C)NC(=O)[C@H](CCC(=O)O)NC(=O)[C@H](CC(=O)O)NC3=O)NC1=O)CCCN2C(C)=O (stereo partly drawn) [I-595, Ac-PL3-Asp-Ile-B5-Asp-Glu-Ala-Ala-Phe-Gln-S8-Phe-BztA-[AzAc]Lys-NH2] |  |  | 2.64 | 57
6 |  |  |  |  | CC[C@H](C)[C@@H]1NC(=O)[C@H](CC(=O)O)NC(=O)[C@]2(CC=CCCCC3(CCCC=CCCCCCC[C@@](C)(C(=O)N[C@@H](Cc4ccccc4)C(=O)N[C@@H](Cc4csc5ccccc45)C(=O)N[C@@H](CCC(N)=O)C(=O)N[C@@H](CCCCNC(=O)CN=[N+]=[N-])C(N)=O)NC(=O)[C@H](CCC(N)=O)NC(=O)[C@H](Cc4ccccc4)NC(=O)[C@H](C)NC(=O)[C@H](C)NC(=O)[C@H](CCC(=O)O)NC(=O)[C@H](CC(=O)O)NC3=O)NC1=O)CCCN2C(C)=O (stereo partly drawn) [I-596, Ac-PL3-Asp-Ile-B5-Asp-Glu-Ala-Ala-Phe-Gln-S8-Phe-BztA-Gln-[AzAc]Lys-NH2] | 2.373 | 112 |  | 
7 |  |  |  |  | CC[C@H](C)[C@@H]1NC(=O)[C@H](CC(=O)O)NC(=O)[C@]2(CC=CCCCC3(CCCC=CCCCCCC[C@@](C)(C(=O)N[C@@H](Cc4ccccc4)C(=O)N[C@@H](Cc4csc5ccccc45)C(=O)N[C@@H](CCC(N)=O)C(=O)N[C@@H](CCCCNC(=O)CN=[N+]=[N-])C(N)=O)NC(=O)[C@H](CCC(N)=O)NC(=O)[C@H](Cc4ccccc4)NC(=O)[C@H](C)NC(=O)[C@H](C)NC(=O)[C@H](CCC(=O)O)NC(=O)[C@H](CC(=O)O)NC3=O)NC1=O)CCCN2C(C)=O (stereo partly drawn) [I-597, Ac-PL3-Asp-Ile-B5-Asp-Glu-Ala-Ala-Phe-Gln-S8-Phe-BztA-Gln-[AzAc]Lys-NH2] | 2.39 | 76 |  | 
8 | 3.15 | 3150 |  |  | CC[C@H](C)[C@@H]1NC(=O)[C@H](CC(=O)O)NC(=O)[C@]2(CC=CCCCC3(CCCC=CCCCCCC[C@@](C)(C(=O)N[C@@H](Cc4ccccc4)C(=O)N[C@@H](Cc4csc5ccccc45)C(=O)N[C@@H](CCC(N)=O)C(N)=O)NC(=O)[C@H](CCC(N)=O)NC(=O)[C@H](Cc4ccccc4)NC(=O)[C@H](C)NC(=O)[C@H](C)NC(=O)[C@H](CCC(=O)O)NC(=O)[C@H](CC(=O)O)NC3=O)NC1=O)CCCN2C(=O)CCc1ccccn1 (stereo partly drawn) [I-602, 2PyPrpc-PL3-Asp-Ile-B5-Asp-Glu-Ala-Ala-Phe-Gln-S8-Phe-BztA-Gln-NH2] |  |  |  | 
9 |  | 211 | 2.5 | 211 | CC[C@H](C)[C@@H]1NC(=O)[C@H](CC(=O)O)NC(=O)[C@]2(CC=CCCCC3(CCCC=CCCCCCC[C@@](C)(C(=O)N[C@@H](Cc4ccccc4)C(=O)N[C@@H](Cc4csc5ccccc45)C(=O)N[C@@H](CCC(N)=O)C(N)=O)NC(=O)[C@H](CCC(N)=O)NC(=O)[C@H](Cc4ccccc4)NC(=O)[C@H](C)NC(=O)[C@H](C)NC(=O)[C@H](CN(CC)CC(=O)O)NC(=O)[C@H](CC(=O)O)NC3=O)NC1=O)CCCN2C(C)=O (stereo partly drawn) [I-608, Ac-PL3-Asp-Ile-B5-Asp-EtGa-Ala-Ala-Phe-Gln-S8-Phe-BztA-Gln-NH2] | 2.506 | 211 |  | 
10 |  | 80 | 2.5 | 80 | CC[C@H](C)[C@@H]1NC(=O)[C@H](CC(=O)O)NC(=O)[C@]2(CC=CCCCC3(CCCC=CCCCCCC[C@@](C)(C(=O)N[C@@H](Cc4ccccc4)C(=O)N[C@@H](Cc4csc5ccccc45)C(=O)N[C@@H](CCC(N)=O)C(N)=O)NC(=O)[C@H](CCC(N)=O)NC(=O)[C@H](Cc4ccccc4)NC(=O)[C@H](C)NC(=O)[C@H](C)NC(=O)[C@H](CN(CC)CC(=O)O)NC(=O)[C@H](CC(=O)O)NC3=O)NC1=O)CCCN2C(C)=O (stereo partly drawn) [I-609, Ac-PL3-Asp-Ile-B5-Asp-EtGa-Ala-Ala-Phe-Gln-S8-Phe-BztA-Gln-NH2] | 2.534 | 80 |  | 
11 |  | 54 | 2.6 | 54 | CC[C@H](C)[C@@H]1NC(=O)[C@H](CC(=O)O)NC(=O)[C@]2(CC=CCCCC3(CCCC=CCCCCCC[C@@](C)(C(=O)N[C@@H](Cc4ccccc4)C(=O)N[C@@H](Cc4csc5ccccc45)C(=O)N[C@@H](CCC(N)=O)C(N)=O)NC(=O)[C@H](CCC(N)=O)NC(=O)[C@H](Cc4ccccc4)NC(=O)[C@H](C)NC(=O)[C@H](C)NC(=O)[C@H](CN(CC(=O)O)CC(F)(F)F)NC(=O)[C@H](CC(=O)O)NC3=O)NC1=O)CCCN2C(C)=O (stereo partly drawn) [I-610, Ac-PL3-Asp-Ile-B5-Asp-TfeGA-Ala-Ala-Phe-Gln-S8-Phe-BztA-Gln-NH2] | 2.587 | 54 |  | 
12 |  | 55 | 2.6 | 55 | CC[C@H](C)[C@@H]1NC(=O)[C@H](CC(=O)O)NC(=O)[C@]2(CC=CCCCC3(CCCC=CCCCCCC[C@@](C)(C(=O)N[C@@H](Cc4ccccc4)C(=O)N[C@@H](Cc4csc5ccccc45)C(=O)N[C@@H](CCC(N)=O)C(N)=O)NC(=O)[C@H](CCC(N)=O)NC(=O)[C@H](Cc4ccccc4)NC(=O)[C@H](C)NC(=O)[C@H](C)NC(=O)[C@H](CN(CC(=O)O)CC(F)(F)F)NC(=O)[C@H](CC(=O)O)NC3=O)NC1=O)CCCN2C(C)=O (stereo partly drawn) [I-611, Ac-PL3-Asp-Ile-B5-Asp-TfeGA-Ala-Ala-Phe-Gln-S8-Phe-BztA-Gln-NH2] | 2.595 | 55 |  | 
13 | 3.15 | 5000 |  |  | CC[C@H](C)[C@@H]1NC(=O)[C@H](CNS(=O)(=O)C(F)(F)F)NC(=O)[C@]2(CC=CCCCC3(CCCC=CCCCCCC[C@@](C)(C(=O)N[C@@H](Cc4ccccc4)C(=O)N[C@@H](Cc4csc5ccccc45)C(=O)N[C@@H](CCC(N)=O)C(N)=O)NC(=O)[C@H](CCC(N)=O)NC(=O)[C@H](Cc4ccccc4)NC(=O)[C@H](C)NC(=O)[C@H](C)NC(=O)[C@H](CCC(=O)O)NC(=O)[C@H](CC(=O)O)NC3=O)NC1=O)CCCN2C(C)=O (stereo partly drawn) [I-632, Ac-PL3-[Tf]Dap-Ile-B5-Asp-Glu-Ala-Ala-Phe-Gln-S8-Phe-BztA-Gln-NH2] |  |  |  | 
